Reference: patent publication EP0476645B1, “Calcium uptake inhibitors” (MERRELL DOW PHARMACEUTICALS INC., priority 1990, dated 1992)

Tested on: Rat PMNL
Assay: Measurement of intracellular calcium in fMLP-stimulated PMNL preloaded with Fura-2
Format: cell-based
Settings: fMLP stimulus, preincubation with compound 15 minutes at 37°C, concentrations in figure 1
Method: Rat PMNL were obtained from exudates resulting from peritoneal injection of 6 mL of 8% sodium caseinate. Eighteen hours after injection rats were killed by carbon dioxide inhalation and the peritoneal cavity lavaged with Hank's balanced salt solution (HBSS). After concentration of the PMNL by centrifugation, contaminating erythrocytes were removed by hypotonic lysis. The PMNL were then washed twice by centrifugation (400 x g for 10 minutes) and resuspended in HBSS. Cell viability was greater than 90% by Trypan Blue exclusion and greater than 90% of the cells were PMNL by Wright-Giemsa stain.
Intracellular calcium levels were obtained using Fura-2 as fluorescent indicator (Grynkiewicz et al., 1985). Fura-2 was loaded into PMNL as the acetoxymethyl ester (Fura-2/AM) using the method of Korchak et al., (1988). Specifically, 1 X 10⁸ PMNL/mL were incubated in HBSS with 10 µM Fura-2/AM for 10 minutes at 37°C. The cells suspension was then diluted ten fold with HBSS and further incubated for another 20 minutes. The cells were then centrifuged (400 x g for 8 minutes at 25°C) and the PMNL (1 x 10⁷ cells/mL) resuspended in HBSS containing 1% bovine serum albumin. Cells were stored at room temperature and used within 3 hours.
Intracellular calcium level determinations were made using a dual wavelength spectrofluorometer (Photon Technology International, New Brunswick, NJ). Two mL of PMNL suspension (1 x 10⁷ cells/mL) were stirred magnetically at 37°C. Cells were preincubated with the compounds for 15 minutes at 37°C prior to activation. Where compounds were dissolved in DMSO and added directly, the DMSO never exceeded 0.3% in the final cell suspension. Total change in volume with addition of compounds or vehicle and stimuli never exceeded 3%. Intracellular calcium concentrations were calibrated by setting a maximum calcium level in the cells with the addition of 7 µM ionomycin to PMNL in HBSS containing 1% BSA. This was followed by treatment with 20 mM EGTA for 1 hour to obtain a minimum calcium level. […]

With `CN(C)c1ccc(C(=O)C#Cc2ccncn2)cc1` [MDL 102,387, 1-(4-dimethylaminophenyl)-3-(4-pyrimidinyl)-2-propyne-1-one] the “suppression of the second wave of intracellular calcium changes” value was “selective concentration-dependent suppression”.
